Measured values: patent US3993683A, “Biphenylyl derivatives” (Boehringer Ingelheim GmbH, priority 1974, dated 1976)
Read-outs that look alike come from different tables or passages of the source.

Assays:
[1] = system: thrombocyte aggregation in the platelet-rich plasma of healthy human test subjects; assay: Inhibition of collagen-induced thrombocyte aggregation (method of Born and Cross); assay type: cell-based; details: 10^-4 mol/liter test compound, 10 minutes incubation at 37° C, vs untreated controls; for inhibition at 100 µM: Homo sapiens, 10 min
Excerpt: 1. The inhibiting action upon thrombocyte aggregation was ascertained by the method of Born and Cross, J. Physiol. 170, 397 (1964), in the platelet-rich plasma of healthy human test subjects, by photometrically ascertaning and registering the rate of decrease of the optical density after addition of commercial collagen containing 1 mgm of collagen fibrils per ml. The angle of inclination of the density curve is a measure of the rate of aggregaton (V max.). The point on the curve which corresponded to the greatest lightpermeability was used for calculation of the optical density (o.D.).
The collagen doses were held to a minimum, but still sufficiently large to result in an irreversible aggregation. Prior to addition of collagen, each plasma sale was incubated for 10 minutes at 37° C with various amounts of the test compound. To provoke maximum aggregation, about 0.01 ml of the collagen solution was added to 1 ml of platelet-rich plasma.
The values in Table I below represent the inhibition of the aggregation rate in % (V max) and the alteration of the optical density (O.D.) in %, compared with the untreated controls, i.e. without addition of the test compound.

non-anesthetized mice = assay: Prolonging effect upon the bleeding time (method of Duke); assay type: in vivo; details: 10 mgm/kg per os, vs untreated animals; for change in vivo at 10 mg/kg: Mus musculus, po
Excerpt: 2. The prolonging effect upon the bleeding time was ascertained by the method of Duke, J. Amer. Med. Assoc. 15, 1185 (1910). 10 mgm/kg of the test compound were given per os to non-anesthetized mice. One or three hours after administration of the test compound, about 0.5 mm was cut off from the tail of each animal, and the exuded blood was carefully soaked up with filter paper at intervals of 30 seconds. The number of drops of blood so obtained was used as a measure for the bleeding time compared to untreated animals (5 animals/test).

white mice = assay: Acute toxicity after oral administration of a single dose; assay type: in vivo; details: observation time 14 days
Description: (§1) The acute toxicity of the test compounds was determined in white mice (observation time: 14 days) after oral administration of a single dose.

[2] = as above; assay type: in vivo; details: mouse, in vivo, po, white mice, observation time 14 days
Description: as §1

[3] = 1 h, 1 hour after administration, read-out: Prolongation of bleeding time in % after 1 hour
[4] = 3 h, 3 hours after administration, read-out: Prolongation of bleeding time in % after 3 hours
[5] = read-out: Inhibition in % of the aggregation rate (V max)
[6] = read-out: Inhibition in %: alteration of the optical density (O.D.)

Row | SMILES | Inhibition in % of the aggregation rate (V max) [1] | Inhibition in %: alteration of the optical density (O.D.) [1] | change in vivo at 10 mg/kg (non-anesthetized mice; [3]) | change in vivo at 10 mg/kg (non-anesthetized mice; [4]) | animals died (at the stated dose) (white mice) | Prolongation of bleeding time in % after 1 hour (non-anesthetized mice; 1 hour after administration) | Prolongation of bleeding time in % after 3 hours (non-anesthetized mice; 3 hours after administration) | inhibition at 100 µM [1, 5] | inhibition at 100 µM [1, 6] | LD50 at 336 h [2]
1 | COC(=O)C[S+]([O-])C(C)c1ccc(-c2ccccc2F)cc1 (single isomer, unassigned) [A, [1-(2'-fluoro-4-biphenylyl)-ethylsulfinyl]-acetic acid methyl ester] | 32% | 45% | 136% | 66% | 1 out of 10 |  |  |  |  | 
2 | COC(=O)C[S+]([O-])C(C)c1ccc(-c2ccccc2F)cc1 (single isomer, unassigned) [B, [1-(2'-fluoro-4-biphenylyl)-ethylsulfinyl]-acetic acid methyl ester] | 72% | 81% |  |  | 2 out of 5 | 142% | 56% |  |  | 
3 | COC(=O)C[S+]([O-])C(C)c1ccc(-c2ccccc2F)cc1 (single isomer, unassigned) [F, dextrorotatory [1-(2'-fluoro-4-biphenylyl)-ethylsulfinyl]-acetic acid methyl ester] |  |  | 117% |  |  |  |  | 20% | 19% | 
4 | COC(=O)C[S+]([O-])C(C)c1ccc(-c2ccccc2F)cc1 (single isomer, unassigned) [G, levorotatory [1-(2'-fluoro-4-biphenylyl)-ethylsulfinyl]-acetic acid methyl ester] | 13% | 27% |  |  |  | 129% |  |  |  | 
5 | CC(C)CCOC(=O)C[S+]([O-])C(C)c1ccc(-c2ccccc2F)cc1 (centres unmarked) [C, [1-(2'-fluoro-4-biphenylyl)-ethylsulfinyl]-acetic acid isoamyl ester] |  |  | 112% | 49% | 1 out of 5 |  |  | 67% | 82% | > 250 mg/kg
6 | COC(=O)C[S+]([O-])C(C)(C)c1ccc(-c2ccccc2F)cc1 (centres unmarked) [D] |  |  | 71% |  | 2 out of 5 |  |  | 37% | 48% | > 250 mg/kg
7 | COC(=O)C[S+]([O-])CCC(C)c1ccc(-c2ccccc2)cc1 (centres unmarked) [E, [3-(4-biphenylyl)-butyl-(1)-sulfinyl]-acetic acid methyl ester] |  |  | 188% | 85% | 0 out of 5 |  |  | 92% | 95% | > 250 mg/kg
8 | CNC(=O)C[S+]([O-])C(C)c1ccc(-c2ccccc2F)cc1 (centres unmarked) [H, [1-(2'-fluoro-4-biphenylyl)-ethylsulfinyl]-acetic acid methyl amide] |  |  | 64% |  | 0 out of 5 |  |  | 8% | 13% | > 250 mg/kg
9 | CC(c1ccc(-c2ccccc2F)cc1)[S+]([O-])CC(=O)N1CCCCC1 (centres unmarked) [I, [1-(2'-fluoro-4-biphenylyl)-ethylsulfinyl]-acetic acid piperidide] |  |  | 122% |  | 0 out of 5 |  |  | 85% | 90% | > 250 mg/kg
10 | CC(c1ccc(-c2ccccc2F)cc1)[S+]([O-])CC(=O)N1CC[S+]([O-])CC1 (centres unmarked) [J, [1-(2'-fluoro-4-biphenylyl)-ethylsulfinyl]-acetic acid-(1-oxido-thiomorpholide)] |  |  | 149% |  | 0 out of 5 |  |  | 16% | 31% | > 250 mg/kg
11 | C[S+]([O-])CC(O)c1ccc(-c2ccc(F)cc2)cc1 (centres unmarked) [K] |  |  | 68% | 30% |  |  |  | 59% | 73% | 
12 | COC(=O)C[S+]([O-])CC(=O)c1ccc(-c2ccccc2)cc1 (centres unmarked) [L, [2-(4-biphenylyl)-2-oxo-ethylsulfinyl]-acetic acid methyl ester] |  |  | 120% | 78% |  |  |  | 22% | 47% | 
13 | COC(=O)C[S+]([O-])CC(=O)c1ccc(-c2ccccc2F)cc1 (centres unmarked) [M, [2-(2'-fluoro-4-biphenylyl)-2-oxo-ethylsulfinyl]-acetic acid methyl ester] |  |  | 90% | 39% |  |  |  | 97% | 95% | 
14 | O=C(O)C[S+]([O-])CC(=O)c1ccc(-c2ccc(F)cc2)cc1 (centres unmarked) [N, [2-(4'-fluoro-4-biphenyl)-2-oxo-ethylsulfinyl]acetic acid] |  |  | 98% | 37% |  |  |  |  |  | 
15 | COC(=O)C[S+]([O-])C(C)c1ccc(-c2cccc(Cl)c2)cc1 (centres unmarked) [O, [1-(3'-chloro-4-biphenylyl)-ethylsulfinyl]-acetic acid methyl ester] |  |  | 12% |  | 0 out of 5 |  |  | 66% | 76% | > 250 mg/kg
16 | COC(=O)C[S+]([O-])C(C)c1ccc(-c2ccccc2[N+](=O)[O-])cc1 (centres unmarked) [P, [1-(2'-nitro-4-biphenylyl)ethylsulfinyl]-acetic acid methyl ester] |  |  | 15% |  | 0 out of 5 |  |  | 61% | 74% | > 250 mg/kg
17 | COC(=O)C[S+]([O-])C(C)c1ccc(-c2ccccc2F)c(F)c1 (centres unmarked) [Q, [1-(2,2'-difluoro-4-biphenylyl)-ethylsulfinyl]-acetic acid methyl ester] |  |  | 73% |  | 0 out of 5 |  |  | 48% | 54% | > 250 mg/kg
18 | COC(=O)C[S+]([O-])C(C)c1ccc(-c2ccc(Br)cc2)c(F)c1 (centres unmarked) [R, [1-(2-fluoro-4'-bromo-4-biphenylyl)-ethylsulfinyl]-acetic acid methyl ester] |  |  | 50% |  |  |  |  | 46% | 64% | 
19 | COC(=O)CS(=O)(=O)C(C)c1ccc(-c2ccccc2F)cc1 (centres unmarked) [S] |  |  | 83% | 27% | 0 out of 5 |  |  | 45% | 66% | > 250 mg/kg
20 | CC(C)CCOC(=O)CS(=O)(=O)C(C)c1ccc(-c2ccccc2F)cc1 (centres unmarked) [T, [1-(2'-fluoro-4-biphenylyl)-ethylsulfonyl]-acetic acid isoamyl ester] |  |  | 51% |  | 0 out of 5 |  |  | 76% | 83% | > 250 mg/kg
21 | CC(c1ccc(-c2ccccc2F)cc1)S(C)(=O)=O (centres unmarked) [U, [1-(2'-fluoro-4-biphenylyl)-ethyl]-methylsulfone] |  |  | 56% |  | 0 out of 5 |  |  | 87% | 90% | > 250 mg/kg
22 | O=C(O)CS(=O)(=O)Cc1ccc(-c2ccc(Cl)cc2)cc1 [V, [(4'-chloro-4-biphenylyl)-methylsulfonyl]-acetic acid, reference compound] |  |  | 3% |  | 3 out of 10 |  |  | 6% | 11% | > 250 mg/kg
